Experimental data: article PMC4506051, “Pharmacokinetic Profiles of Active Ingredients and Its Metabolites Derived from Rikkunshito, a Ghrelin Enhancer, in Healthy Japanese Volunteers: A Cross-Over, Randomized Study” (PLoS ONE, 2015)
Blank lines part the entries; values can stand above or below the molecule they belong to.

Assays:
[1] = Stability of ingredients in gastric pH solution (pH 1.2, 37°C); format: physicochemical
Experimental: Rikkunshito gradually dissolved in acidic solution (pH 1.2) at 37°C, and the concentration of atractylodin after adding 0.25, 0.5, 1, and 2 h was measured by gas chromatography–mass spectrometry.

[2] = Exploratory trial: ingredients in β-glucuronidase (enzyme)-treated urine; format: in vivo, human
Experimental: (§1) In the first exploratory trial, 20-mL blood samples were collected from the cutaneous vein in the subjects’ forearm via a blood sampling tube that contained heparin at 0 (preadministration), 0.5, 1, 2, 4, and 8 h after a single oral administration of rikkunshito (Lot E24652). The dose of rikkunshito used in this trial was 7.5 g/day, which is the clinical daily dose, to widely explore rikkunshito-derived ingredients that enter the blood. Along with plasma, urine samples were collected at three points: between dinner and bedtime (preadministration), between 0 and 4 h after administration, and between 4 and 8 h after administration. The blood was immediately centrifuged at 1700 ×g for 10 min to obtain plasma. Plasma and urine fractions were stored at −80°C or lower until analysis.
(§2) For quantification of 30 ingredients other than atractylodin and synephrine, 25 µL of standard solution or methanol was added to 500 µL plasma or urine samples followed by mixing. Atractylenolide III or digoxin (IS) solution (50 μL) was added to the solutions followed by mixing. For urine, 400 µL of blank plasma was added to the solutions. Ammonium acetate solution (100 mM, 100 or 400 µL) was added to the solutions followed by mixing. For enzymatic treatment, plasma and urine samples were incubated with β-glucuronidase (100 units in 100 mM ammonium acetate) for 2 h at 37°C. A solid-phase cartridge (OASIS HLB, 30 mg/1cc, Waters) was conditioned with methanol and 10 mM ammonium acetate solution, and the samples were loaded onto the cartridge. The cartridge was washed water : methanol (9:1, v/v), and 1.5 mL of methanol and 30 µL of propylene glycol were added to the cartridge to elute the analytes. The mixtures were dried at 25°C under a stream of nitrogen gas. Furthermore, 100 μL of 10 mM ammonium acetate : methanol (8:2, v/v) was added to the dried samples followed by mixing and sonication. The solutions were filtered (0.22 µm) and followed by injection into the LC–MS/MS system. […] Those analytical conditions are summarized in S2 Table and S3 Table.

[3] = Exploratory trial: plasma concentration of rikkunshito ingredients after single oral rikkunshito 7.5 g; format: in vivo; conditions: for Plasma concentration, 0 h: 0 h (preadministration), single oral rikkunshito 7.5 g; for Plasma concentration, 4 h: 4 h after single oral rikkunshito 7.5 g; for Plasma concentration, 8 h: 8 h after single oral rikkunshito 7.5 g
Experimental: A random sequence was generated using a computer. The safety endpoint was evaluated in all volunteers.
as §1
(§3) For quantification of synephrine, 5 µL of standard solution or methanol was added to 100 µL plasma or urine samples followed by mixing. Ten microliters of erythromycin [internal standard (IS)] solution was added to the solutions followed by mixing and centrifugation (20,400 ×g, 5 min, 4°C). The supernatants were loaded onto an Ostro 96-well plate (Waters) and centrifuged (1500 ×g, 3 min, 4°C) followed by injection into the LC–MS/MS.
as §2

[4] = Exploratory trial: ingredients in β-glucuronidase (enzyme)-treated plasma; format: in vivo, human; conditions: β-glucuronidase-treated, rikkunshito 7.5 g, mean ± S.D., n = 4
Experimental: as §1, §2

[5] = Exploratory trial: amount of rikkunshito ingredients in urine; format: in vivo, human
Experimental: as §1, §3, §2

[6] = Method validation: stability in standard, stock and working solution; conditions: IS 2000 ng/mL
[7] = Formation of ingredients derived from rikkunshito in formulation, blood, and urine (S11 Table summary); conditions: after rikkunshito administration, per ingredient in the formulation
[8] = β-glucuronidase-treated, 0–4 h after rikkunshito 7.5 g, mean ± S.D., n = 4
[9] = β-glucuronidase-treated, 4–8 h after rikkunshito 7.5 g, mean ± S.D., n = 4
[10] = β-glucuronidase-treated, preadministration, mean ± S.D., n = 4
[11] = 0–4 h after single oral rikkunshito 7.5 g, mean ± S.D., n = 4
[12] = 4–8 h after single oral rikkunshito 7.5 g, mean ± S.D., n = 4
[13] = preadministration (between dinner and bedtime), mean ± S.D., n = 4
[14] = rikkunshito in acidic solution (pH 1.2) at 37°C, 0.5 h
[15] = rikkunshito in acidic solution (pH 1.2) at 37°C, 1 h
[16] = rikkunshito in acidic solution (pH 1.2) at 37°C, 2 h

Structure (SMILES): CNCC(O)c1ccc(O)cc1 (stereo not drawn) [Synephrine]
Stability in gastric pH solution, Quantitative value [1, 14]: 3200 ng/mL
Stability in gastric pH solution, Quantitative value [1, 15]: 3180 ng/mL
Stability in gastric pH solution, Quantitative value [1, 16]: 2960 ng/mL
Plasma concentration, 0 h ([3]; mean ± S.D., n = 4): BQL
Plasma concentration, 0.5 h ([3]; 0.5 h after single oral rikkunshito 7.5 g, mean ± S.D., n = 4): 0.029 ± 0.058 ng/mL
Plasma concentration, 1 h ([3]; 1 h after single oral rikkunshito 7.5 g, mean ± S.D., n = 4): BQL
Plasma concentration, 2 h ([3]; 2 h after single oral rikkunshito 7.5 g, mean ± S.D., n = 4): BQL
Plasma concentration, 4 h ([3]; mean ± S.D., n = 4): BQL
Plasma concentration, 8 h ([3]; mean ± S.D., n = 4): BQL
Amount in urine, 0–4 h [5, 11]: 2150 ± 296 ng
Amount in urine, 4–8 h [5, 12]: 798 ± 282 ng
Amount in urine, Pre [5, 13]: 24.2 ± 28.8 ng

Structure (SMILES): CCCCCCC[C@H](O)CC(=O)CCc1ccc(O)c(OC)c1 [[8]-Gingerol, [8]-Gingerol]
Amount in enzyme-treated urine, 0–4 h [2, 8]: 49.5 ± 78.3 ng
Amount in enzyme-treated urine, 4–8 h [2, 9]: BQL
Amount in enzyme-treated urine, Pre [2, 10]: 2.73 ± 5.46 ng
Amount in urine, 0–4 h [5, 11]: 8.97 ± 17.9 ng
Amount in urine, 4–8 h [5, 12]: BQL
Amount in urine, Pre [5, 13]: BQL

Structure (SMILES): CC1(C)[C@@H](O[C@H]2O[C@H](C(=O)O)[C@@H](O)[C@H](O)[C@H]2O[C@@H]2O[C@H](C(=O)O)[C@@H](O)[C@H](O)[C@H]2O)CC[C@]2(C)[C@H]3C(=O)C=C4[C@@H]5C[C@@](C)(C(=O)O)CC[C@]5(C)CC[C@@]4(C)[C@]3(C)CC[C@@H]12 [glycyrrhizic acid]
Formation of ingredients: form found in Blood [7]: 18β-Glycyrrhetinic acid Glycyrrhetinic acid 3-O-glucuronide
Formation of ingredients: form found in Urine ([7]; BQL = below the quantification limit): 18β-Glycyrrhetinic acid Glycyrrhetinic acid 3-O-glucuronide

Next, values leading:

Stability in gastric pH solution, Quantitative value ([1]; 0.5 h, pH 1.2): 5.58 ng/mL
Stability in gastric pH solution, Quantitative value ([1]; 1 h, pH 1.2): 7.09 ng/mL
Stability in gastric pH solution, Quantitative value ([1]; 2 h, pH 1.2): 5.09 ng/mL
Amount in enzyme-treated urine, 0–4 h [2, 8]: 7010 ± 2840 ng
Amount in enzyme-treated urine, 4–8 h [2, 9]: 3260 ± 1580 ng
Amount in enzyme-treated urine, Pre [2, 10]: 22.8 ± 19.7 ng
Plasma concentration, 0 h ([3]; mean ± S.D., n = 4): BQL
Plasma concentration, 4 h ([3]; mean ± S.D., n = 4): BQL
Plasma concentration, 8 h ([3]; mean ± S.D., n = 4): BQL
Plasma concentration of unchanged form before enzyme treatment ([3]; detected in only one subject, at any time point): approximately 30 pg/ml
concentration at 0.5 h ([3]; human, plasma, 0.5 h after single oral rikkunshito 7.5 g, mean ± S.D., n = 4, read-out: Plasma concentration, 0.5 h): 0.00923 ± 0.0185 ng/mL
concentration at 1 h ([3]; human, plasma, 1 h after single oral rikkunshito 7.5 g, mean ± S.D., n = 4): 0.00715 ± 0.0143 ng/mL
concentration at 2 h ([3]; human, plasma, 2 h after single oral rikkunshito 7.5 g, mean ± S.D., n = 4, read-out: Plasma concentration, 2 h): 0.00693 ± 0.0139 ng/mL
concentration at 0.5 h ([4]; human, plasma, oral, 0.5 h): 2.34 ng/mL
concentration at 1 h ([4]; human, plasma, oral, 1 h): 0.987 ± 0.36 ng/mL
concentration at 2 h ([4]; human, plasma, oral, 2 h, read-out: Plasma concentration in enzyme-treated plasma, 2 h): 0.328 ± 0.183 ng/mL
concentration at 4 h ([4]; human, plasma, oral, 4 h, read-out: Plasma concentration in enzyme-treated plasma, 4 h): 0.371 ± 0.113 ng/mL
concentration at 8 h ([4]; human, plasma, oral, 8 h, read-out: Plasma concentration in enzyme-treated plasma, 8 h): 0.222 ± 0.134 ng/mL
Plasma concentration in enzyme-treated plasma, 0 h ([4]; 0 h (preadministration)): BQL
Plasma concentration in enzyme-treated plasma, 0.5 h ([4]; 0.5 h): 2.34 ± 0.848 ng/mL
Amount in urine, 0–4 h [5, 11]: 2300 ± 1150 ng
Amount in urine, 4–8 h [5, 12]: 1600 ± 886 ng
Amount in urine, Pre [5, 13]: 4.61 ± 4.20 ng
Structure (SMILES): COc1c(CC=C(C)C)c(O)cc2oc(=O)c(-c3ccc(O)cc3O)cc12 [Glycycoumarin]

Short-term stability of standard solution, RR ([6]; at room temperature for 24 h): IS: 100.0%
Long-term stability of standard solution, RR ([6]; refrigerator (0.5°C to 7.4°C) for 4 weeks): IS: 93.4%
Structure (SMILES): C=C1CCC[C@]2(C)C[C@]3(O)OC(=O)C(C)=C3C[C@@H]12 [IS, Atractylenolide III, reference compound]

Stability in gastric pH solution, Quantitative value ([1]; 0.5 h, pH 1.2): 152 ng/mL
Stability in gastric pH solution, Quantitative value ([1]; 1 h, pH 1.2): 154 ng/mL
Stability in gastric pH solution, Quantitative value ([1]; 2 h, pH 1.2): 149 ng/mL
Amount in enzyme-treated urine, 0–4 h ([2]; human, in vivo): 8170 ± 5630 ng
Amount in enzyme-treated urine, 4–8 h ([2]; human, in vivo): 821 ± 654 ng
Amount in enzyme-treated urine, Pre ([2]; human, in vivo): 278 ± 261 ng
Increase of urine concentration after β-glucuronidase treatment compared with before treatment ([2]; human, in vivo): more than 10 fold
Amount in urine, Pre ([5]; human, in vivo): 18.6 ± 26.2 ng
Amount in urine, 0–4 h ([5]; human, in vivo, po): 602 ± 552 ng
Amount in urine, 4–8 h ([5]; human, in vivo, po): 35.0 ± 57.1 ng
Structure (SMILES): CCCCC[C@H](O)CC(=O)CCc1ccc(O)c(OC)c1 [[6]-Gingerol, [6]-Gingerol]

Stability in gastric pH solution, Quantitative value [1, 14]: 17.9 ng/mL
Stability in gastric pH solution, Quantitative value [1, 15]: 18.5 ng/mL
Stability in gastric pH solution, Quantitative value [1, 16]: 17.9 ng/mL
Increase of urine concentration after β-glucuronidase treatment compared with before treatment ([2]; rikkunshito 7.5 g): more than 10 fold
Amount in enzyme-treated urine, 0–4 h [2, 8]: 4980 ± 1480 ng
Amount in enzyme-treated urine, 4–8 h [2, 9]: 392 ± 310 ng
Amount in enzyme-treated urine, Pre [2, 10]: 109 ± 160 ng
Amount in urine, 0–4 h [5, 11]: 459 ± 283 ng
Amount in urine, 4–8 h [5, 12]: 15.4 ± 30.7 ng
Amount in urine, Pre [5, 13]: 16.3 ± 26.4 ng
Structure (SMILES): CCCCC/C=C/C(=O)CCc1ccc(O)c(OC)c1 [[6]-Shogaol, [6]-Shogaol]

Stability in gastric pH solution, Quantitative value [1, 14]: 2.00 ng/mL
Stability in gastric pH solution, Quantitative value [1, 15]: 1.89 ng/mL
Stability in gastric pH solution, Quantitative value [1, 16]: 1.83 ng/mL
Increase of urine concentration after β-glucuronidase treatment compared with before treatment ([2]; rikkunshito 7.5 g): more than 10 fold
Amount in enzyme-treated urine, 0–4 h [2, 8]: 239 ± 62.5 ng
Amount in enzyme-treated urine, 4–8 h [2, 9]: BQL
Amount in enzyme-treated urine, Pre [2, 10]: 3.73 ± 7.46 ng
Amount in urine, 0–4 h [5, 11]: 9.00 ± 18.0 ng
Amount in urine, 4–8 h [5, 12]: BQL
Amount in urine, Pre [5, 13]: BQL
Structure (SMILES): CCCCCCC/C=C/C(=O)CCc1ccc(O)c(OC)c1 [[8]-Shogaol, [8]-Shogaol]
